In patent US9057725B2, “Composition for diagnosing, treating, and preventing liver disease” (SNU R&DB Foundation, priority 2010, dated 2015):
“Also recorded” adds a separate entry of the source.

Legend:
[1] = system: Balb/c mice treated with CCl4; experiment: Hepatic injury and hepatic fibrosis induced by CCl4 in mice; assay type: in vivo, mouse; conditions: for hepatic injury (H&E staining): 50 mg/kG oral administration or IP, 3 times/week; for hepatic injury (H&E staining) / collagen type I expression (Masson's Trichrome staining): 2 weeks; for collagen type I expression (Masson's Trichrome staining): oral administration or IP, 50 mg/kG; for Ser10 phosphorylation induction (p27) / TM4SF5 signal transduction process (phosphorylation of Smad3, phosphorylation and activation of EFGR/Erk) / p27 expression / α-SMA expression induction: liver tissue extract, Western blotting
Method: Balb/c mice (5 weeks old, n=5) were used. The mice were fed with sterilized water and feeds. For the biological day/night cycle, the indoor light was turned on for 12 hours and off for 12 hours. The mice were treated with CCl4 or ethanol for 2 weeks. The CCl4 group mice were treated with 40% CCl4 diluted in olive oil by intraperitoneal administration ([…], 3 times/week). The CCl4-ContComp group mice were treated with 4′-Amino-4-hydroxychalcone, the control compound (ContComp), every other day and every next day of CCl4 treatment by IP (intraperitoneal injection) or oral administration (50 mg/kG, 40% DMSO, 3 times/week). The CCl4-TSAHC group mice were treated with TSAHC every other day and every next day of CCl4 treatment by IP (intraperitoneal injection) or oral administration (50 mg/kG, 40% DMSO, 3 times/week).
Two weeks later, the mice were sacrificed by using ether. The liver was extracted from the sacrificed animal of each group. Paraffin samples were prepared by the same manner as described in Example 5. The paraffin sections in the thickness of 4-5 μm were fixed on slide, followed by H&E (hematoxylin and eosin) staining for the confirmation of hepatic injury, Masson's Trichrome […] staining for collagen type I staining, and immunihistochemistry with the antibody (1:1500) against α-SMA (smooth muscle actin, Sigma).
Additionally, two mice were randomly selected from each group, from which liver tissue extract was prepared. The protein in the extract was quantified, followed by Western blotting with antibodies against phospho-Y^1173EGFR (Santa Cruz Biotechnology, Santa Cruz, Calif.), phospho-Y^1068EGFR (Santa Cruz Biotechnology, Santa Cruz, Calif.), EGFR (Santa Cruz Biotechnology, Santa Cruz, Calif.), phospho-Erk (Cell Signaling Technology, Danvers, Mass.), Erk (Cell Signaling Technology, Danvers, Mass., USA), phospho-Smad3 (Cell Signaling Technology, Danvers, Mass.), TM4SF5 (antibody of Example 1), α-SMA (smooth muscle actin, Sigma), phospho-S^10-p27 (Santa Cruz Biotechnology, Santa Cruz, Calif., USA), p27 (BD Transduct. Lab. San Jose Calif., USA), and α-tubulin (Sigma-Aldrich).

TM4SF5 [2] = molecular target: T1, TM4SF5 (Mus musculus, UniProt F6X2F3); experiment: TGFβ mediated α-SMA expression in normal hepatocytes (AML12 cells) treated with TM4SF5 antagonist, Western blotting; assay type: cell-based
T1 construct: normal hepatocytes were treated with TGFβ to induce TM4SF5 expression and EMT, during which TSAHC was treated; endogenous in cells; host or cells: AML12 (ATCC), TGFβ-treated
T1 sequence (F6X2F3 1-196): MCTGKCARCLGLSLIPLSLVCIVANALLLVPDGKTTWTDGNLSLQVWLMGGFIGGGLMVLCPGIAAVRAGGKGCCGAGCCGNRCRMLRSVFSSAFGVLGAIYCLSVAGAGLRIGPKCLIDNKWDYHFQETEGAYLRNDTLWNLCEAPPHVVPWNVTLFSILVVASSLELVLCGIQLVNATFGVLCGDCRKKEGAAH
Method: FIG. 25 is a set of photographs illustrating the results of Western blotting performed to confirm the level of α-SMA expression induced by TGFβ in AML12 cells treated with TSAHC and […].
First, normal hepatocytes were treated with TGFβ to induce TM4SF5 expression and EMT, during which TSAHC was treated. As described hereinbefore, the normal hepatocytes were washed with serum-free DMEM, followed by serum starvation for 4 hours. Then, the cells treated with TGFβ to induce TM4SF5 expression. 6 hours later, the cells were treated with TSAHC at the concentration of 5 μM or 10 μM, followed by culture for 18 hours. The expression of α-SMA protein was investigated.
For the comparison, the cells were treated with the control compound that had similar structure to TSAHC but had substituted R residue (4′-amino-4-hydroxychalcone) at the same concentration as the above (5 μM or 10 μM).

AML12 cells = experiment: TM4SF5 expression in AML12 cells treated with EGF, HGF and PDGF before TGFβ; assay type: cell-based, mouse; conditions: growth factor 30 minutes before TGFβ (2.5 ng/ml), 24 hours, serum-free
Method: AML12 cells were cultured in DMEM supplemented with 10% FBS, which were then washed with serum-free DMEM. The cells were maintained as serum-free status for 4 hours. After serum starvation, the cells were treated with EGF, HGF, and PDGF (PeproTech, Inc., Rocky Hill, N.J., USA) 30 minutes before the treatment of TGFβ (2.5 ng/ml) in order to activate EGFR signaling. The cells were further cultured for 24 hours after the treatment of TGFβ. AML12 cell line was the normal hepatocyte cell line which was sensitive to serum. To make near death condition, the medium was regulated as serum-free and the experiment was carried out under the serum-free condition and ITS (Insulin, transferrin, selenium, Sigma-Aldrich) treated condition, which was the same serum-free condition as mentioned above.
Western blotting was performed to confirm TM4SF5 expression. As a result, when the cells were treated with EGF, HGF, and PDGF, EGFR signaling was activated and thereby TM4SF5 expression was increased (FIG. 11).

TM4SF5 [3] = molecular target: T2, TM4SF5 (Homo sapiens, UniProt O14894); experiment: TGFβ1 mediated vimentin expression in Chang cells, Western blotting; assay type: cell-based; conditions: 5 μM or 10 μM
T2 construct: endogenous in cells; host or cells: Chang cells (ATCC), TGFβ-treated
T2 sequence (O14894 1-197): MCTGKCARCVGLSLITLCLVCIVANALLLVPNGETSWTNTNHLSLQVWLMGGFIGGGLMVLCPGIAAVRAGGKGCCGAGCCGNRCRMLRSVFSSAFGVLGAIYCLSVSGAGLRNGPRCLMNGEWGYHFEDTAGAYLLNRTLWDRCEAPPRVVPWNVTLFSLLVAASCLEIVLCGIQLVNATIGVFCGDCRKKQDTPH
Method: FIG. 26 is a set of photographs illustrating the results of Western blotting performed to confirm the level of vimentin expression mediated by TGFβ in Chang cells treated with TSAHC, 4′-(p-aminobenzenesulfoneamide)-4-hydroxychalcone, and 4,4-dihydroxychalcone.
(§1) In addition, 4′-(p-aminobenzenesulfonamide)-4-hydroxychalcone (ASAHC), the water-soluble […], was treated to AML12 and Chang cells at the concentration of 5 μM or 10 μM.

TM4SF5 [4] = molecular target: T1, TM4SF5; experiment: TGFβ1 mediated vimentin expression in AML12 cells, Western blotting; assay type: cell-based; conditions: 5 μM or 10 μM
Method: FIG. 27 is a set of photographs illustrating the results of Western blotting performed to confirm the level of vimentin expression mediated by TGFβ in AML12 cells treated with TSAHC, 4′-(p-aminobenzenesulfoneamide)-4-hydroxychalcone, and 4,4-dihydroxychalcone.
as §1

Chang cells = experiment: TM4SF5 expression and EGFR signal transduction system over treatment times of TGFβ and EGF in Chang cells; assay type: cell-based, human
Method: Chang cells were cultured in DMEM supplemented with 10% FBS, which were then washed with serum-free DMEM. The cells were maintained as serum-free status for 4 hours. […] Then, TM4SF5 expression and EGFR signal transduction system were investigated.

[5] = liver tissue of CCl4 treated mice
[6] = AML12 cells, compound 5 μM or 10 μM 6 hours after TGFβ, culture for 18 hours, Western blotting

Nc1ccc(C(=O)/C=C/c2ccc(O)cc2)cc1 [4′-amino-4-hydroxychalcone, reference compound] was tested, and the “hepatic injury (H&E staining)” value ([1]; CCl4 together with compound) was “CCl4 dependency was not observed”, the “collagen type I expression (Masson's Trichrome staining)” value ([1]; CCl4 together with compound) was “not detected” and the “Ser10 phosphorylation induction (p27)” value [1] was “not inhibited”. The “TM4SF5 signal transduction process (phosphorylation of Smad3, phosphorylation and activation of EFGR/Erk)” value [1] was “not affected”, the p27 expression [1] was “not inhibited” and the α-SMA expression induction [1] was “not inhibited”. For the same molecule, the EMT [1, 5] was “not inhibited”, the “TGFβ mediated α-SMA expression” value (TM4SF5 [2]; [6]) was “did not affect” and the TM4SF5 expression (TM4SF5 [2]; [6]) was “did not affect”.
“HGF: growth factor (PeproTech) used to activate EGFR signaling” was tested, and the TM4SF5 expression (AML12 cells) was “increased”.
With PDGF the TM4SF5 expression (AML12 cells) was “increased”.
O=C(/C=C/c1ccc(O)cc1)c1ccc(O)cc1 [4′4-dihydroxychalcone, reference compound] was tested, and the “TGFβ1 mediated vimentin expression” value (TM4SF5 [3]) was “not much changed” and the “TGFβ1 mediated vimentin expression” value (TM4SF5 [4]) was “not much changed”.
In the case of Nc1ccc(S(=O)(=O)Nc2ccc(C(=O)/C=C/c3ccc(O)cc3)cc2)cc1 [ASAHC, 4′-(p-aminobenzenesulfonylamino)-4-hydroxychalcone], the “TGFβ1 mediated vimentin expression” value (TM4SF5 [3]) is reported as “down-regulated” and the “TGFβ1 mediated vimentin expression” value (TM4SF5 [4]) is reported as “down-regulated”.
In the case of Cc1ccc(S(=O)(=O)Nc2ccc(C(=O)/C=C/c3ccc(O)cc3)cc2)cc1 [TSAHC, 4′-(p-toluenesulfonylamino)-4-hydroxychalcone], the “TGFβ1 mediated vimentin expression” value (TM4SF5 [3]) is reported as “down-regulated”, the “hepatic injury (H&E staining)” value ([1]; CCl4 together with compound) is reported as “reduced” and the “α-SMA expression (immunohistochemical staining)” value ([1]; CCl4 together with compound, liver tissue) is reported as “reduced”. For the same molecule, the “collagen type I expression (Masson's Trichrome staining)” value ([1]; CCl4 together with compound) was “decrease; also recorded: reduced”, the “liver H&E staining, compound only” value ([1]; group treated with compound only, without CCl4) was “normal liver” and the “Ser10 phosphorylation induction (p27)” value [1] was “inhibited”. For the same molecule, the “TM4SF5 signal transduction process (phosphorylation of Smad3, phosphorylation and activation of EFGR/Erk)” value [1] was “not affected”, the p27 expression [1] was “inhibited” and the α-SMA expression induction [1] was “inhibited”. For the same molecule, the EMT [1, 5] was “decrease; also recorded: inhibited”, the TM4SF5 activity [1, 5] was “suppressed” and the “TGFβ mediated α-SMA expression” value (TM4SF5 [2]; [6]) was “significantly reduced; also recorded: inhibit”. For the same molecule, the EFGR/Erk phosphorylation (TM4SF5 [2]; normal hepatocytes treated with TGFβ and compound) was “reduced” and the “TGFβ1 mediated vimentin expression” value (TM4SF5 [4]) was “down-regulated”.
“EGF: growth factor (PeproTech) used to activate EGFR signaling” was tested, and the TM4SF5 expression (AML12 cells) was “increased”, the “EGFR signal transduction system activation and TM4SF5 expression, EGF only” value (Chang cells; EGF only for 4 hours at different concentrations) was “not particularly induced” and the “EGFR signal transduction system activation and TM4SF5 expression over time” value (Chang cells; TGFβ (2.5 ng/ml) and EGF (50 ng/ml), 0, 0.5, 1, 2, and 24 hours) was “induced temporally”.
